The target of the test is T1, human liver glycogen phosphorylase a (HLGPa) (Homo sapiens, UniProt P06737).
T1 construct: creating a full-length cDNA fused at the 5′ end to codons for methionine-glycine-alanine-histidine; 6xHis tag (leader Met-Gly-Ala-His6-Gly-Gly) (N); made in house; host or cells: E. coli (bacterial expression plasmid pTXK1007LTev)
T1 sequence (P06737 2-847 limits assumed): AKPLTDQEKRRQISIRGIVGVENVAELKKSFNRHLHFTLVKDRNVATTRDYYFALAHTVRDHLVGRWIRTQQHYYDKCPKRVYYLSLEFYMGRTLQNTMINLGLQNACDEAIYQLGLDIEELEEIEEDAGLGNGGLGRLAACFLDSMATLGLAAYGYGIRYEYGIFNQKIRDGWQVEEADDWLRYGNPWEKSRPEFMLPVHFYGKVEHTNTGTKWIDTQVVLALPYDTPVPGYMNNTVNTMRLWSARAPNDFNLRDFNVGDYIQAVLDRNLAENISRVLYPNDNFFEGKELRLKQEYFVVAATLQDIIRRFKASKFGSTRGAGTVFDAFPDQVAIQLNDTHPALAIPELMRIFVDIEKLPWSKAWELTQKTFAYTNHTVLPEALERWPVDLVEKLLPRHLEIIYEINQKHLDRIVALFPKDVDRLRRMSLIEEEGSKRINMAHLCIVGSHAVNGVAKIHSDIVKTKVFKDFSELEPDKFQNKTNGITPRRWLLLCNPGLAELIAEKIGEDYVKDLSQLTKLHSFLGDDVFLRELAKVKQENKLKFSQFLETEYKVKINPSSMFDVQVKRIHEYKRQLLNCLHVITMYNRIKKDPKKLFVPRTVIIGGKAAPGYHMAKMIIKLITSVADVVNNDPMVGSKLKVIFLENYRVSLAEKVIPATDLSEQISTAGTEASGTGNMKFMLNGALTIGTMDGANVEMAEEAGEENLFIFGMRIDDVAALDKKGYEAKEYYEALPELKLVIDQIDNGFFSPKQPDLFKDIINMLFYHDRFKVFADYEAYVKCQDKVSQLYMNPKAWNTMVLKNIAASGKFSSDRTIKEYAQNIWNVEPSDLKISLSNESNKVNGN
Description: Human liver glycogen phosphorylase a enzymatic activity assay (coupled, fluorescent resorufin readout, with and without 10 mM glucose). It counts as biochemical.

The mark [1] stands for this setting: human liver glycogen phosphorylase a, table does not say whether with or without 10 mM glucose.
Setting [2] is: human liver glycogen phosphorylase a enzymatic activity assay.

Structures can show the parent of a compound that is named as a salt.

For the compound `Cc1cc(C)c(NC(=O)Nc2cc3ccccc3cc2C(=O)NC(C(=O)O)C2CCC(NC3CCC3)CC2)c(C)c1` (mixture of isomers) [Example 347, (cis and trans)-[4-(cyclobutylamino)cyclohexyl]({[3-({[(2,4,6-trimethylphenyl)amino]carbonyl}amino)-2-naphthalenyl]carbonyl}amino)acetic acid], inhibition under setting [1] was half-maximal at 0.81 µM (IC50).

On to `Cc1cc(C)c(NC(=O)Nc2cc3ccccc3cc2C(=O)NC(C(=O)O)C2CCC(N3CCOCC3)CC2)c(C)c1` (mixture of isomers) [Example 348, (cis and trans)-[4-(4-morpholinyl)cyclohexyl]({[3-({[(2,4,6-trimethylphenyl)amino]carbonyl}amino)-2-naphthalenyl]carbonyl}amino)acetic acid], for which the IC50 (commonly the midpoint of a concentration-inhibition curve) under setting [1] turned out to be 1.86 µM.

`COC(=O)C(NC(=O)c1cc2ccccc2cc1NC(=O)Nc1c(C)cc(C)cc1C)C1CCC(NC(=O)OC(C)(C)C)CC1` (mixture of isomers) [Example 349, (cis and trans)-methyl[4-({[(1,1-dimethylethyl)oxy]carbonyl}amino)cyclohexyl] ({[3-({[(2,4,6-trimethylphenyl)amino]carbonyl}amino)-2-naphthalenyl]carbonyl}amino)acetate] came in with a concentration for half-maximal inhibition (IC50) under setting [1] of 6.89 µM.

`Cc1cc(C)c(NC(=O)Nc2cc3ccccc3cc2C(=O)NC(C(=O)O)C2CCC(NC(=O)OC(C)(C)C)CC2)c(C)c1` (mixture of isomers) [Example 350, (cis and trans)-[4-({[(1,1-dimethylethyl)oxy]carbonyl}amino)cyclohexyl]({[3-({[(2,4,6-trimethylphenyl)amino]carbonyl}amino)-2-naphthalenyl]carbonyl}amino)acetic acid]: under setting [1], it took 0.044 µM to reach half-maximal inhibition (IC50). This IC50 lies about 160-fold lower than the previous one.

Take `Cc1cc(C)c(NC(=O)Nc2cc3ccccc3cc2C(=O)NC(C(=O)O)C2CCC(N)CC2)c(C)c1` (mixture of isomers) [Example 351, (cis and trans)-(4-aminocyclohexyl)({[3-({[(2,4,6-trimethylphenyl)amino]carbonyl}amino)-2-naphthalenyl]carbonyl}amino)acetic acid trifluoroacetate]: the midpoint of inhibition under setting [1], the IC50, lay at 2.37 µM.

As for `CNC(=O)NC1CCC(C(NC(=O)c2cc3ccccc3cc2NC(=O)Nc2c(C)cc(C)cc2C)C(=O)O)CC1` (mixture of isomers) [Example 352, (cis and trans)-(4-{[(methylamino)carbonyl]amino}cyclohexyl)({[3-({[(2,4,6-trimethylphenyl)amino]carbonyl}amino)-2-naphthalenyl]carbonyl}amino)acetic acid], under setting [1], the half-maximal inhibitory concentration (IC50) was determined as 0.1 µM. Compared with the last compound, the IC50 is about 24-fold lower.

Under setting [1], `Cc1cc(C)c(NC(=O)Nc2cc(Cl)cnc2C(=O)N[C@H](C(=O)O)C(C)OC(C)(C)C)c(C)c1` (stereo in doubt) [Example 318, N-{[5-chloro-3-({[(2,4,6-trimethylphenyl)amino]carbonyl}amino)-2-pyridinyl]carbonyl}-O-(1,1-dimethylethyl)-L-threonine] yielded an IC50 of 4.28 µM.

Take `Cc1cccc(C)c1NC(=O)Nc1sc2c(c1C(=O)N[C@H](C(=O)O)C(C)C)CCCC2` [Example 3, N-{[2-({[(2,6-dimethylphenyl)amino]carbonyl}amino)-4,5,6,7-tetrahydro-1-benzothien-3-yl]carbonyl}-L-valine]: under setting [2], inhibition was half-maximal at 32.2 µM (IC50).

With `Cc1cccc(C)c1NC(=O)Nc1sc2ccccc2c1C(=O)N[C@H](C(=O)O)C1CCCCC1` [Example 4, (2S)-cyclohexyl({[2-({[(2,6-dimethylphenyl)amino]carbonyl}amino)-1-benzothien-3-yl]carbonyl}amino)acetic acid], the IC50 under setting [2] stood at 0.73 µM.

As to `Cc1cccc(Cl)c1NC(=O)Nc1cc2ccccc2cc1C(=O)NC(C(=O)O)C1CCCNC1` (stereo not drawn) [Example 5, {[3-({[(2-chloro-6-methylphenyl)amino]carbonyl}amino)-2-naphthoyl]amino}(piperidin-3-yl)acetic acid trifluoroacetate], 20.9 µM corresponded to half-maximal inhibition under setting [2] (IC50). Against the preceding compound, the IC50 is about 29-fold higher.

Compound `Cc1cc(CNC(=O)c2cc3ccccc3cc2NC(=O)Nc2c(C)cccc2Cl)on1` [Example 6, 3-({[(2-chloro-6-methylphenyl)amino]carbonyl}amino)-N-[(3-methylisoxazol-5-yl)methyl]-2-naphthamide] returned an IC50 under setting [2] of 35.1 µM.

`Cc1ccccc1CC(=O)Nc1cc2ccccc2cc1C(=O)N[C@H](C(=O)O)C1CCCCC1` [Example 7, (2S)-cyclohexyl{[(3-{[(2-methylphenyl)acetyl]amino}-2-naphthalenyl)carbonyl]amino}ethanoic acid] showed an IC50 under setting [2] of 17 µM.

Under setting [2], `O=C(O)C[C@H](NC(=O)c1cc2ccccc2cc1NC(=O)Nc1ccccc1Cl)C(=O)O` [Example 9, N-[3-({[(2-chlorophenyl)amino]carbonyl}amino)-2-naphthoyl]-L-aspartic acid] yielded an IC50 of 2.78 µM.

Under setting [2], `Cc1ccccc1NC(=O)Nc1cc2ccccc2cc1C(=O)NCC(=O)O` [Example 10, N-[3-({[(2-methylphenyl)amino]carbonyl}amino)-2-naphthoyl]glycine] gave a half-maximal inhibitory concentration (IC50) of 6.5 µM. This IC50 is about 2.3-fold higher than that of the compound before.

The compound `Cc1cccc(C)c1NC(=O)Nc1cc2ccccc2cc1C(=O)NCC(=O)O` [Example 11, N-[3-({[(2,6-dimethylphenyl)amino]carbonyl}amino)-2-naphthoyl]glycine] came in with an IC50 under setting [2] of 0.09 µM. This IC50 lies about 72-fold lower than the previous one.

Under setting [2], `O=C(O)CNC(=O)c1cc2ccccc2cc1NC(=O)Nc1ccccc1Cl` [Example 12, N-[3-({[(2-chlorophenyl)amino]carbonyl}amino)-2-naphthoyl]glycine] displayed an IC50 of 2.52 µM.

Regarding `Cc1ccccc1NC(=O)Nc1cc2ccccc2cc1C(=O)N[C@@H](C)C(=O)O` [Example 13, N-[3-({[(2-methylphenyl)amino]carbonyl}amino)-2-naphthoyl]-L-alanine], under setting [2], half-maximal inhibition (IC50) required 15.5 µM. Against the preceding compound, the IC50 is about 6.2-fold higher.

In the case of `Cc1ccccc1NC(=O)Nc1cc2ccccc2cc1C(=O)N[C@H](C(=O)O)[C@@H](C)O` [Example 14, N-[3-({[(2-methylphenyl)amino]carbonyl}amino)-2-naphthoyl]-L-threonine], the IC50 under setting [2] was determined as 6.41 µM.

In the case of `CC[C@H](C)[C@H](NC(=O)c1cc2ccccc2cc1NC(=O)Nc1ccccc1C)C(=O)O` [Example 15, N-[3-({[(2-methylphenyl)amino]carbonyl}amino)-2-naphthoyl]-L-isoleucine], under setting [2], 11 µM corresponded to half-maximal inhibition (IC50).

In turn, `Cc1ccccc1NC(=O)Nc1cc2ccccc2cc1C(=O)N[C@@H](CC(C)C)C(=O)O` [Example 16, N-[3-({[(2-methylphenyl)amino]carbonyl}amino)-2-naphthoyl]-L-leucine] had a half-maximal inhibitory concentration (IC50) under setting [2] of 5.1 µM. This IC50 lies about 2.2-fold lower than the previous one.

As for `Cc1ccccc1NC(=O)Nc1cc2ccccc2cc1C(=O)N[C@@H](CC(N)=O)C(=O)O` [Example 17, N-[3-({[(2-methylphenyl)amino]carbonyl}amino)-2-naphthoyl]-L-asparagine], the IC50 under setting [2] stood at 4.72 µM.

`Cc1cccc(C)c1NC(=O)Nc1cc2ccccc2cc1C(=O)N[C@@H](C)C(=O)O` [Example 18, N-[3-({[(2,6-dimethylphenyl)amino]carbonyl}amino)-2-naphthoyl]-L-alanine]: the concentration for half-maximal inhibition (IC50) under setting [2] turned out to be 1.48 µM.

Under setting [2], `Cc1cccc(C)c1NC(=O)Nc1cc2ccccc2cc1C(=O)N[C@@H](CO)C(=O)O` [Example 19, N-[3-({[(2,6-dimethylphenyl)amino]carbonyl}amino)-2-naphthoyl]-L-serine] yielded a concentration for half-maximal inhibition (IC50) of 2 µM.

On to `Cc1cccc(C)c1NC(=O)Nc1cc2ccccc2cc1C(=O)N1CCC[C@H]1C(=O)O` [Example 20, 1-[3-({[(2,6-dimethylphenyl)amino]carbonyl}amino)-2-naphthoyl]-L-proline], for which, under setting [2], 2.24 µM corresponded to half-maximal inhibition (IC50).

These data come from patent US20070249670A1, “Glycogen Phosphorylase Inhibitor Compounds and Pharmaceutical Compositions Thereof” (SMITHKLINE BEECHAM CORPORATION, priority 2004, published 2007).
